“Also recorded” adds a separate entry of the source.
Key:
CYP2C9 = CYP2C9 (Homo sapiens, UniProt P11712); assay: CYP2C9 inhibition; settings: 10 μM
[1] = molecular target: T1, human 5-HT2CR (unedited INI isoform) (Homo sapiens, UniProt P28335); settings: h5-HT2CR-CHO cells
T1 sequence (P28335 33-458): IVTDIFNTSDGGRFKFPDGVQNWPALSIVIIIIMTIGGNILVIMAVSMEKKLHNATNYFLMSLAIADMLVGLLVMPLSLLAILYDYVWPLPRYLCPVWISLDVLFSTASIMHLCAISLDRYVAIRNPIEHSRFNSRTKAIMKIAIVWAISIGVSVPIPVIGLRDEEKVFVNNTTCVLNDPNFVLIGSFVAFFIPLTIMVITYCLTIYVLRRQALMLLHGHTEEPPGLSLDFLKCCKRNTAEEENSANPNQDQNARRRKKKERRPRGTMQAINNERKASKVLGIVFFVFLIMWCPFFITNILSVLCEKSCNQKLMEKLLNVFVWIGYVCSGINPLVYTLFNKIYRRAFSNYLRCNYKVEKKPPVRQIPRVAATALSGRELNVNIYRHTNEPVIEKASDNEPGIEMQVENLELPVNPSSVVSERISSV

α 1B = molecular target: T2, α 1B (Homo sapiens, UniProt P35368); assay: NIMH PDSP radioligand binding displacement, α 1B; settings: read-out: % inhibition (10 μM)
T2 sequence (P35368 1-520): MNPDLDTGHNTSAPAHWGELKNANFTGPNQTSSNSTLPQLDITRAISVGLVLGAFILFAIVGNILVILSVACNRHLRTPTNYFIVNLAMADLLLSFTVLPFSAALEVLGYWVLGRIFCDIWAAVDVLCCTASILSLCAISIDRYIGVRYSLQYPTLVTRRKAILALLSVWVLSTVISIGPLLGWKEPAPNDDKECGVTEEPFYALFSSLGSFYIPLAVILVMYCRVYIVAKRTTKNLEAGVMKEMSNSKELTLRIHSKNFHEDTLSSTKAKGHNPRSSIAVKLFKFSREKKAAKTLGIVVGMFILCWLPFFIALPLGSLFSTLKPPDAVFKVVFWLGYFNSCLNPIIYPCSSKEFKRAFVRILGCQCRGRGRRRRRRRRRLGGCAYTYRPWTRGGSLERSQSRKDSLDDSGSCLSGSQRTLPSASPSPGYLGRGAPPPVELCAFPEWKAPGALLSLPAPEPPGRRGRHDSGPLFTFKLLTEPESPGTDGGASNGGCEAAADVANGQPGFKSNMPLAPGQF

CYP1A2 = molecular target: T3, CYP1A2 (Homo sapiens, UniProt P05177); assay: CYP1A2 inhibition; settings: 10 μM
T3 sequence (P05177 1-516): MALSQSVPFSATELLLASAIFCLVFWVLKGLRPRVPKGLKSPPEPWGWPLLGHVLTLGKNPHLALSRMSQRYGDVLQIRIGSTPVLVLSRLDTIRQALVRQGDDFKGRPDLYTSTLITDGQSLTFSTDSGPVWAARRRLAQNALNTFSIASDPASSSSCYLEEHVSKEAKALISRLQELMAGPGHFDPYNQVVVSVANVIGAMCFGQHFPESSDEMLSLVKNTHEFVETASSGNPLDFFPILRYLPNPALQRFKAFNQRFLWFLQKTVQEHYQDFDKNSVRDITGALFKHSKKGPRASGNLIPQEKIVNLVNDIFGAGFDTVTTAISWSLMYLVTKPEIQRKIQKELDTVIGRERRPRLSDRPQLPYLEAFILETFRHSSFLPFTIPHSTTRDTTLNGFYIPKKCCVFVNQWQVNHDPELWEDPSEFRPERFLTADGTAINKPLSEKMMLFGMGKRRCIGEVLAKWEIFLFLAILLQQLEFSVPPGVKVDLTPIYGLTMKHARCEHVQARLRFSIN

male Sprague–Dawley rats = assay: WAY163909 versus saline two-lever drug discrimination assay; format: in vivo, rat; settings: 12 alone 0.5–5 mg/kg ip
human h5-HT2AR = human h5-HT2AR (Homo sapiens, UniProt P28223); assay: 5-HT-induced Cai2+ release assay in h5-HT2AR-CHO cells; format: cell-based
Chain of human h5-HT2AR (P28223 whole entry): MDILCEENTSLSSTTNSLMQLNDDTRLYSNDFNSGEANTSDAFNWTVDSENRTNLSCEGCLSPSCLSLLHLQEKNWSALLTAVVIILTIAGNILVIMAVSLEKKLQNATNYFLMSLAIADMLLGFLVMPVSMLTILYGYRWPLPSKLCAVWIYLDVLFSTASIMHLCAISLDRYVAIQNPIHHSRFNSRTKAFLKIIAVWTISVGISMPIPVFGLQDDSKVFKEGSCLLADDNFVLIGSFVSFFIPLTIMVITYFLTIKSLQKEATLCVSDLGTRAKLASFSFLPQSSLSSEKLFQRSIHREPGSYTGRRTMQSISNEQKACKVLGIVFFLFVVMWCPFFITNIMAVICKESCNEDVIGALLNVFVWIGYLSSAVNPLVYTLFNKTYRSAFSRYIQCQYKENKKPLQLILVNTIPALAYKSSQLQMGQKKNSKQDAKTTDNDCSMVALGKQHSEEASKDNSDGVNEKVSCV

CYP3A4 = CYP3A4 (Homo sapiens, UniProt P08684); assay: CYP3A4 inhibition; settings: 10 μM
Chain of CYP3A4 (P08684 whole entry): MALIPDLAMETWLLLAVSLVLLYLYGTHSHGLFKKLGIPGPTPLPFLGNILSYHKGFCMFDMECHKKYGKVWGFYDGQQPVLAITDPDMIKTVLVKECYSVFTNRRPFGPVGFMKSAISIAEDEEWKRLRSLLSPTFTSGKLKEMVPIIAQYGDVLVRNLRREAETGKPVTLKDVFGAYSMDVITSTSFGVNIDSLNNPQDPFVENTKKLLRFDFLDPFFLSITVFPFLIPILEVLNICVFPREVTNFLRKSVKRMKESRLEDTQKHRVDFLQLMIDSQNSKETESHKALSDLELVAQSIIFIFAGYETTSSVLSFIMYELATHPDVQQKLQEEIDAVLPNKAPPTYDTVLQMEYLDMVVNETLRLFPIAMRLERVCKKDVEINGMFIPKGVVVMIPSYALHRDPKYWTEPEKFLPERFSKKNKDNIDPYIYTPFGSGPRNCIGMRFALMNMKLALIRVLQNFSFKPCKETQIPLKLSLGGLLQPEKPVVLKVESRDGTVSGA

[2] = rat liver microsomal clearance; settings: microsomes
CYP2C19 = CYP2C19 (Homo sapiens, UniProt P33261); assay: CYP2C19 inhibition; settings: 10 μM
Chain of CYP2C19 (P33261 whole entry): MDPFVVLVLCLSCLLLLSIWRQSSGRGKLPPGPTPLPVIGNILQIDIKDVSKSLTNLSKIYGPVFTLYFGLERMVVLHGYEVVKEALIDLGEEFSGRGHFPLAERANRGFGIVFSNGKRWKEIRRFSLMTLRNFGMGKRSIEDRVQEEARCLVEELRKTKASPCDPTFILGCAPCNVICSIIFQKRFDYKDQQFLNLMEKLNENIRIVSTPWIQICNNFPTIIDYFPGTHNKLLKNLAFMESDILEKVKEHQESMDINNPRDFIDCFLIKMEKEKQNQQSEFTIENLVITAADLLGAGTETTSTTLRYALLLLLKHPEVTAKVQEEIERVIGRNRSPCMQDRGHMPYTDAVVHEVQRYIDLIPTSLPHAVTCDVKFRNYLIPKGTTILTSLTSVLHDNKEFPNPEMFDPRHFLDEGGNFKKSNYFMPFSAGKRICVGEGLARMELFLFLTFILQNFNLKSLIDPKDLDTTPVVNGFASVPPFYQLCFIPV

CYP2D6 = CYP2D6 (Homo sapiens, UniProt P10635); assay: CYP2D6 inhibition; settings: 10 μM
Chain of CYP2D6 (P10635 whole entry): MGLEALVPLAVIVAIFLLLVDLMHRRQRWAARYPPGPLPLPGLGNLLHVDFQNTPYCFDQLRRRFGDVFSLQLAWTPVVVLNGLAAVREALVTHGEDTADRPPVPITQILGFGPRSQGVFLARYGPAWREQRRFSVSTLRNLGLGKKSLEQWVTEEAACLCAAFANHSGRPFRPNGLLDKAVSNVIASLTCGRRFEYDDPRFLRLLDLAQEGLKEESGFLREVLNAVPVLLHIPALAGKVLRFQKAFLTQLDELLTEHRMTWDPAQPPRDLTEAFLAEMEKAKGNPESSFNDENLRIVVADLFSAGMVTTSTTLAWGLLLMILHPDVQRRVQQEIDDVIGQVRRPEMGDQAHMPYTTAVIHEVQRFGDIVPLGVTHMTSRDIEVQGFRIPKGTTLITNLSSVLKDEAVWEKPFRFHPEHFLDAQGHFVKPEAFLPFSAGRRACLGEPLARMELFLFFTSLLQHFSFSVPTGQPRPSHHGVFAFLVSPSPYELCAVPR

kinetic solubility = settings: 2 h

Chain of CYP2C9 (P11712 whole entry, canonical isoform): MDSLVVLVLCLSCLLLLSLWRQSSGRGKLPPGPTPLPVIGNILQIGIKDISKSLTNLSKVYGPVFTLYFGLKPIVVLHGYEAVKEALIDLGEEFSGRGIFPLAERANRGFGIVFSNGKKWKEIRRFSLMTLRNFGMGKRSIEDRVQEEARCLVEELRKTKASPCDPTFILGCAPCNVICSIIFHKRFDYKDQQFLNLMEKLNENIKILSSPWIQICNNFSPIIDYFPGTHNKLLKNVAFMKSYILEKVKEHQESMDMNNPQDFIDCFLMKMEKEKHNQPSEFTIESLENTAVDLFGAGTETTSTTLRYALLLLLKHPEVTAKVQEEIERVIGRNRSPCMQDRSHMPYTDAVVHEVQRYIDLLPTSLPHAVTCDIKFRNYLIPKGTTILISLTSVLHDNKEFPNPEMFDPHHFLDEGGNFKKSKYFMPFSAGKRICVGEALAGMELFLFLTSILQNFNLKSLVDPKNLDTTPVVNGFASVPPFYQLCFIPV

Question: Which results are given for O=C(NC[C@H](O)CO)[C@@H]1C[C@H](c2ccccc2)CCN1 (mixture of isomers) [Compound 12, (2,4-cis)-N-((S)-2,3-Dihydroxypropyl)-4-phenylpiperidine-2-carboxamide]?
Answer: CYP2C9 inhibition (CYP2C9): 0.0% (10 μM); 5-HT2CR positive allosteric modulator activity (in words) ([1]; 1 nM, 5-HT-induced Cai2+ release): significant PAM activity; intrinsic agonist activity to induce Cai2+ release prior to addition of 5-HT ([1]; compound added 15 min before 5-HT): did not exhibit intrinsic activity; inhibition at 10 µM (α 1B): -11%; CYP1A2 inhibition (CYP1A2): 11.8% (10 μM); response rates (in words) (male Sprague–Dawley rats): no change in response rates; substitution for WAY163909 (lever responding, in words) (male Sprague–Dawley rats; 30 min prior to testing): evoked saline lever responding; alteration of Emax or EC50 of 5-HT-induced Cai2+ release (in words) (human h5-HT2AR): no alteration in the Emax or EC50; also recorded: inactive as an agonist or allosteric modulator; CYP3A4 inhibition (CYP3A4): 0.0% (10 μM); microsomal CLint at 10 μM [2]: < 9.6 µL/min/mg; CYP2C19 inhibition (CYP2C19): 0.0% (10 μM); CYP2D6 inhibition (CYP2D6): 1.9% (10 μM); kinetic solubility (PBS; pH 7.4) (kinetic solubility): highly soluble

— PMC8434884 (Journal of medicinal chemistry, 2020)
